Assay results taken from US4349545A, “Novel erythromycin a derivatives” (Roussel Uclaf, priority 1980, dated 1982).
Values after ≈ are worked out from the molar mass of the structure shown.

Tests used:
[1] = system: Streptococcus faecalis 99 F 74; experiment: serial dilution liquid medium MIC, Streptococcus faecalis 99 F 74; assay type: cell-based; settings: Enterococcus faecalis, 99F74, 24 hours at 37° C., read-out: minimum inhibiting concentration (MIC)
Procedure: (§1) The method was a serial dilution of liquid medium test wherein a series of tubes were prepared containing the same amount of sterile nutritive medium and increasing amounts of the test product was distributed in each tube. The tubes were then seeded with a bacterial strain and incubated for 24 hours in an oven at 37° C. The degree of inhibition was determined by transillumination to determine the minimum inhibiting concentration (MIC) express in μg/ml and the results are reported in the following Tables.

[2] = system: Staphylococcus aureus exp. n° 54 146; experiment: serial dilution liquid medium MIC, Staphylococcus aureus exp. n° 54 146; assay type: cell-based; settings: Staphylococcus aureus exp. 54 146; 24 hours at 37° C.; read-out: minimum inhibiting concentration (MIC)
Procedure: as §1

[3] = system: Streptococcus pyogenes A 561; experiment: serial dilution liquid medium MIC, Streptococcus pyogenes A 561; assay type: cell-based; settings: A561, 24 hours at 37° C., read-out: minimum inhibiting concentration (MIC)
Procedure: as §1

[4] = system: Staphylococcus aureus UC 1128; experiment: serial dilution liquid medium MIC, Staphylococcus aureus UC 1128 pen-resistant; assay type: cell-based; settings: UC1128; Staphylococcus aureus UC 1128 pen-resistant; 24 hours at 37° C.; read-out: minimum inhibiting concentration (MIC)
Procedure: as §1

[5] = system: Streptococcus faecalis 5435; experiment: serial dilution liquid medium MIC, Streptococcus faecalis 5435; assay type: cell-based; settings: Enterococcus faecalis, 24 hours at 37° C., read-out: minimum inhibiting concentration (MIC)
Procedure: as §1

[6] = system: Streptococcus faecalis 5432; experiment: serial dilution liquid medium MIC, Streptococcus faecalis 5432; assay type: cell-based; settings: Enterococcus faecalis, 24 hours at 37° C., read-out: minimum inhibiting concentration (MIC)
Procedure: as §1

[7] = system: Staphylococcus aureus 1061; experiment: serial dilution liquid medium MIC, Staphylococcus aureus 1061 pen-sensibles; assay type: cell-based; settings: 24 hours at 37° C., read-out: minimum inhibiting concentration (MIC)
Procedure: as §1

[8] = system: Staphylococcus aureus No. 54,146; experiment: In vivo activity in mice experimentally infected with Staphylococcus aureus No. 54,146; settings: groups of 10 mice
Procedure: The test was effected with the compounds of the invention and erythromycin as a reference on groups of 10 mice weighing about 21 g experimentally infected with Staphylococcus aureus No. 54,146 by intraperitoneal administration of 0.5 ml of a 22 hour culture of the said organism in bouillon with a pH of 7 diluted to 1/6 with physiological water. The test compounds were orally administrated to the mice 1,5 and 24 hours after the infection and the mortality on the 8th day was determined.

SMILES	MIC [1]	MIC [2]	MIC [3]	MIC [4]	MIC [5]	MIC [6]	MIC [7]	No. of mice living on the 8th day ([8]; dose 0,5mg oral, 1,5 and 24 hours after infection)	No. of mice living on the 8th day ([8]; dose 0,25mg oral, 1,5 and 24 hours after infection)	No. of mice living on the 8th day ([8]; dose 0,75mg oral, 1,5 and 24 hours after infection)
CC[C@H]1OC(=O)[C@H](C)[C@@H](O[C@H]2C[C@@](C)(OC)[C@@H](O)[C@H](C)O2)[C@H](C)[C@@H](O[C@@H]2O[C@H](C)C[C@H](N(C)C)[C@H]2O)[C@](C)(O)C[C@@H](C)C(=NOCCN)[C@H](C)[C@@H](O)[C@]1(C)O [Example 45, 9-[O-(2-aminoethyl)-oxime] of erythromycin]	0.1 µg/mL (≈ 0.126 µM)	1 µg/mL (≈ 1.26 µM)	≤ 0.01 µg/mL	1 µg/mL (≈ 1.26 µM)	0.2 µg/mL (≈ 0.253 µM)	0.4 µg/mL (≈ 0.505 µM)	0.6 µg/mL (≈ 0.758 µM)			
CC[C@H]1OC(=O)[C@H](C)[C@@H](O[C@H]2C[C@@](C)(OC)[C@@H](O)[C@H](C)O2)[C@H](C)[C@@H](O[C@@H]2O[C@H](C)C[C@H](N(C)C)[C@H]2O)[C@](C)(O)C[C@@H](C)C(=NOCOCCCl)[C@H](C)[C@@H](O)[C@]1(C)O [Example 21, 9-[0-{(2-chloroethoxy)-methyl}-oxime] of erythromycin]	0.1 µg/mL (≈ 0.119 µM)	0.2 µg/mL (≈ 0.238 µM)	0.02 µg/mL (≈ 0.0238 µM)	0.2 µg/mL (≈ 0.238 µM)		0.1 µg/mL (≈ 0.119 µM)	0.2 µg/mL (≈ 0.238 µM)	6 mice	0 mice	10 mice
CC[C@H]1OC(=O)[C@H](C)[C@@H](O[C@H]2C[C@@](C)(OC)[C@@H](O)[C@H](C)O2)[C@H](C)[C@@H](O[C@@H]2O[C@H](C)C[C@H](N(C)C)[C@H]2O)[C@](C)(O)C[C@@H](C)C(=NOCCN2CCCC2)[C@H](C)[C@@H](O)[C@]1(C)O [Example 32, 9-[0-(2-{pyrrolidin-1-yl}-ethyl)-oxime] of erythromycin]	0.1 µg/mL (≈ 0.118 µM)	0.6 µg/mL (≈ 0.709 µM)	≤ 0.01 µg/mL	1 µg/mL (≈ 1.18 µM)	0.2 µg/mL (≈ 0.236 µM)	0.05 µg/mL (≈ 0.0591 µM)	0.4 µg/mL (≈ 0.473 µM)			
CC[C@H]1OC(=O)[C@H](C)[C@@H](O[C@H]2C[C@@](C)(OC)[C@@H](O)[C@H](C)O2)[C@H](C)[C@@H](O[C@@H]2O[C@H](C)C[C@H](N(C)C)[C@H]2O)[C@](C)(O)C[C@@H](C)C(=NOCOCCN2CCOCC2)[C@H](C)[C@@H](O)[C@]1(C)O [Example 26, 9-[0-{(2-(morpholin-4-yl)-ethoxy}-methyl)-oxime] of erythromycin]	0.2 µg/mL (≈ 0.224 µM)	0.6 µg/mL (≈ 0.673 µM)	0.1 µg/mL (≈ 0.112 µM)	0.1 µg/mL (≈ 0.112 µM)	1 µg/mL (≈ 1.12 µM)	0.2 µg/mL (≈ 0.224 µM)	0.6 µg/mL (≈ 0.673 µM)			
CC[C@H]1OC(=O)[C@H](C)[C@@H](O[C@H]2C[C@@](C)(OC)[C@@H](O)[C@H](C)O2)[C@H](C)[C@@H](O[C@@H]2O[C@H](C)C[C@H](N(C)C)[C@H]2O)[C@](C)(O)C[C@@H](C)C(=NOCCN2CCCCC2)[C@H](C)[C@@H](O)[C@]1(C)O [Example 34, 9-[O-(2{-piperidin-1-yl}-ethyl)-oxime] of erythromycin]	0.05 µg/mL (≈ 0.0581 µM)	0.6 µg/mL (≈ 0.698 µM)	≤ 0.01 µg/mL	0.6 µg/mL (≈ 0.698 µM)	0.2 µg/mL (≈ 0.233 µM)	0.1 µg/mL (≈ 0.116 µM)	0.4 µg/mL (≈ 0.465 µM)			
CC[C@H]1OC(=O)[C@H](C)[C@@H](O[C@H]2C[C@@](C)(OC)[C@@H](O)[C@H](C)O2)[C@H](C)[C@@H](O[C@@H]2O[C@H](C)C[C@H](N(C)C)[C@H]2O)[C@](C)(O)C[C@@H](C)C(=NOCCNC(C)C)[C@H](C)[C@@H](O)[C@]1(C)O [Example 39, 9-[O-(2-isopropylamino)-oxime] of erythromycin]	≤ 0.02 µg/mL	0.4 µg/mL (≈ 0.48 µM)	0.01 µg/mL (≈ 0.012 µM)	0.6 µg/mL (≈ 0.719 µM)	0.1 µg/mL (≈ 0.12 µM)	0.05 µg/mL (≈ 0.0599 µM)	0.3 µg/mL (≈ 0.36 µM)			
CC[C@H]1OC(=O)[C@H](C)[C@@H](O[C@H]2C[C@@](C)(OC)[C@@H](O)[C@H](C)O2)[C@H](C)[C@@H](O[C@@H]2O[C@H](C)C[C@H](N(C)C)[C@H]2O)[C@](C)(O)C[C@@H](C)C(=NOCSc2ccccc2)[C@H](C)[C@@H](O)[C@]1(C)O [Example 28, 9-[0-(phenylthiomethyl)-oxime] of erythromycin]	0.2 µg/mL (≈ 0.23 µM)	0.6 µg/mL (≈ 0.689 µM)	0.05 µg/mL (≈ 0.0574 µM)	0.6 µg/mL (≈ 0.689 µM)	0.4 µg/mL (≈ 0.459 µM)	0.2 µg/mL (≈ 0.23 µM)	0.4 µg/mL (≈ 0.459 µM)			
